What follows are compounds tested against T1, human apelin receptor (Homo sapiens, UniProt P35414) (assay: Determination of agonism on the human apelin receptor by a calcium fluorescence assay (FLIPR)). Conditions: HEK293 cells stably transfected with human apelin receptor and Giaq protein, Fluo-4 calcium fluorescence, read-out: EC50 (APJ agonism).
T1 construct: expressed in transfected cells
T1 sequence (P35414 1-380): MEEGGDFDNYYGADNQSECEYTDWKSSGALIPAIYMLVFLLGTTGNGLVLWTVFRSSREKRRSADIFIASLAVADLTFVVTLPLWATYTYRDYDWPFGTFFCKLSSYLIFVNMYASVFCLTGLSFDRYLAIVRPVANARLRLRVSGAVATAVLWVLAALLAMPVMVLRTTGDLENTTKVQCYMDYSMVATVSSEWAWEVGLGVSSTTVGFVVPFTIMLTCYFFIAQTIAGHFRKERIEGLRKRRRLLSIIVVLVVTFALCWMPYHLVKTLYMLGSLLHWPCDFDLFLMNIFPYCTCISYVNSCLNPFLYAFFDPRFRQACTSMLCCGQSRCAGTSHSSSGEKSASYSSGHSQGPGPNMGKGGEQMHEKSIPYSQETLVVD
Type: cell-based
Summary of the method: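 HEK293 cells stably co-expressing human apelin receptor and promiscuous Giaq, loaded 1 h at 37 °C with Fluo-4 (4 μM) in probenecid-containing Hepes buffer, pH 7.4. Compounds, at least 7 concentrations in triplicate, added in FLIPR Tetra; peak calcium fluorescence normalized to 1 μM apelin-13 as 100% to derive EC50.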

| SMILES | EC50 [nM] |
| --- | --- |
| CCC(CC)n1c(Cc2cccs2)nc2cc(C(=O)N[C@@H](CC(C)C)C(=O)NCCCSC)ccc21 [Example 248, 1-(1-Ethyl-propyl)-2-thiophen-2-ylmethyl-1H-benzoimidazole-5-carboxylic acid [(S)-3-methyl-1-(3-methylsulfanyl-propylcarbamoyl)-butyl]-amide] | 1800 |
| CCC(CC)n1c(Cc2cccs2)nc2cc(C(=O)N[C@@H](CC(C)C)C(=O)NC3CCOCC3)ccc21 [Example 249, 1-(1-Ethyl-propyl)-2-thiophen-2-ylmethyl-1H-benzoimidazole-5-carboxylic acid [(S)-3-methyl-1-(tetrahydro-pyran-4-ylcarbamoyl)-butyl]-amide] | 407 |
| CCC(CC)n1c(Cc2cccs2)nc2cc(C(=O)N[C@@H](CC(C)C)C(=O)NCc3nccs3)ccc21 [Example 250, 1-(1-Ethyl-propyl)-2-thiophen-2-ylmethyl-1H-benzoimidazole-5-carboxylic acid {(S)-3-methyl-1-[(thiazol-2-ylmethyl)-carbamoyl]-butyl}-amide] | 520 |
| CCC(CC)n1c(Cc2cccs2)nc2cc(C(=O)N[C@@H](CC(C)C)C(=O)NCCC(F)(F)F)ccc21 [Example 251, 1-(-Ethyl-propyl)-2-thiophen-2-ylmethyl-1H-benzoimidazole-5-carboxylic acid [(S)-3-methyl-1-(3,3,3-trifluoro-propylcarbamoyl)-butyl]-amide] | 2560 |
| CCC(CC)n1c(Cc2cccs2)nc2cc(C(=O)N[C@@H](CC(C)C)C(=O)NCc3ncco3)ccc21 [Example 254, 1-(1-Ethyl-propyl)-2-thiophen-2-ylmethyl-1H-benzoimidazole-5-carboxylic acid {(S)-3-methyl-1-[(oxazol-2-ylmethyl)-carbamoyl]-butyl}-amide] | 233 |
| CCC(CC)n1c(Cc2cccs2)nc2cc(C(=O)N[C@@H](CC(C)C)C(=O)NCCSC)ccc21 [Example 258, 1-(1-Ethyl-propyl)-2-thiophen-2-ylmethyl-1H-benzoimidazole-5-carboxylic acid [(S)-3-methyl-1-(2-methylsulfanyl-ethylcarbamoyl)-butyl]-amide] | 1330 |
| CCC(CC)n1c(Cc2cccs2)nc2cc(C(=O)N[C@@H](CC(C)C)C(=O)NCCCCN(CC)CC)ccc21 [Example 261, 1-(1-Ethyl-propyl)-2-thiophen-2-ylmethyl-1H-benzoimidazole-5-carboxylic acid [(S)-1-(4-diethylamino-butylcarbamoyl)-3 methyl-butyl]-amide] | 269 |
| CCC(CC)n1c(Cc2cccs2)nc2cc(C(=O)N[C@@H](CC(C)C)C(=O)Nc3ccc(OC)cc3)ccc21 [Example 265, 1-(1-Ethyl-propyl)-2-thiophen-2-ylmethyl-1H-benzoimidazole-5-carboxylic acid [(S)-1-(4-methoxy-phenylcarbamoyl)-3-methyl-butyl]-amide] | 8660 |
| CCC(CC)n1c(Cc2cccs2)nc2cc(C(=O)N[C@@H](CC(C)C)C(=O)NCc3ccc(N(C)C)cc3)ccc21 [Example 266, 1-(1-Ethyl-propyl)-2-thiophen-2-ylmethyl-1H-benzoimidazole-5-carboxylic acid [(S)-1-(4-dimethylamino-benzylcarbamoyl)-3-methyl-butyl]-amide] | 2720 |
| CCC(CC)n1c(Cc2cccs2)nc2cc(C(=O)N[C@@H](CC(C)C)C(=O)NCCN(C)C)ccc21 [Example 267, 1-(1-Ethyl-propyl)-2-thiophen-2-ylmethyl-1H-benzoimidazole-5-carboxylic acid [(S)-1-(2-dimethylamino-ethylcarbamoyl)-3-methyl-butyl]-amide] | 383 |
| CCC(CC)n1c(Cc2cccs2)nc2cc(C(=O)N[C@@H](CC(C)C)C(=O)NCCOC)ccc21 [Example 268, 1-(1-Ethyl-propyl)-2-thiophen-2-ylmethyl-1H-benzoimidazole-5-carboxylic acid [(S)-1-(2-methoxy-ethylcarbamoyl)-3-methyl-butyl]-amide] | 552 |

More lines, now with the values ahead:

| EC50 [nM] | SMILES |
| --- | --- |
| 6990 | CCC(CC)n1c(Cc2cccs2)nc2cc(C(=O)N[C@@H](CC(C)C)C(=O)NCc3cccc(N(C)C)c3)ccc21 [Example 252, 1-(1-Ethyl-propyl)-2-thiophen-2-ylmethyl-1H-benzoimidazole-5-carboxylic acid [(S)-1-(3-dimethylamino-benzylcarbamoyl)-3-methyl-butyl]-amide] |
| 242 | CCC(CC)n1c(Cc2cccs2)nc2cc(C(=O)N[C@@H](CC(C)C)C(=O)NCCCCN3CCCC3)ccc21 [Example 253, 1-(1-Ethyl-propyl)-2-thiophen-2-ylmethyl-1H-benzoimidazole-5-carboxylic acid [(S)-3-methyl-1-(4-pyrrolidin-1-yl-butylcarbamoyl)-butyl]-amide] |
| 6670 | CCC(CC)n1c(Cc2cccs2)nc2cc(C(=O)N[C@@H](CC(C)C)C(=O)Nc3ccccc3OC)ccc21 [Example 255, 1-(1-Ethyl-propyl)-2-thiophen-2-ylmethyl-1H-benzoimidazole-5-carboxylic acid [(S)-1-(2-methoxy-phenylcarbamoyl)-3-methyl-butyl]-amide] |
| 5920 | CCC(CC)n1c(Cc2cccs2)nc2cc(C(=O)N[C@@H](CC(C)C)C(=O)N(C)Cc3ccccc3OC)ccc21 [Example 256, 1-(1-Ethyl-propyl)-2-thiophen-2-ylmethyl-1H-benzoimidazole-5-carboxylic acid {(S)-1-[(2-methoxy-benzyl)-methyl-carbamoyl]-3-methyl-butyl}-amide] |
| 425 | CCC(CC)n1c(Cc2cccs2)nc2cc(C(=O)N[C@@H](CC(C)C)C(=O)NCC3CCCCN3C)ccc21 (stereo partly drawn) [Example 257, 1-(1-Ethyl-propyl)-2-thiophen-2-ylmethyl-1H-benzoimidazole-5-carboxylic acid {(S)-3-methyl-1-[(1-methyl-piperidin-2-ylmethyl)-carbamoyl]-butyl}-amide] |
| 6650 | CCC(CC)n1c(Cc2cccs2)nc2cc(C(=O)N[C@@H](CC(C)C)C(=O)N[C@H]3C[C@@H]3c3ccccc3)ccc21 [Example 259, 1-(1-Ethyl-propyl)-2-thiophen-2-ylmethyl-1H-benzoimidazole-5-carboxylic acid [(S)-3-methyl-1-((1S,2R)-2-phenyl-cyclopropylcarbamoyl)-butyl]-amide] |
| 170 | CCC(CC)n1c(Cc2cccs2)nc2cc(C(=O)N[C@@H](CC(C)C)C(=O)N3CC[C@@H](N(C)C)C3)ccc21 [Example 260, 1-(1-Ethyl-propyl)-2-thiophen-2-ylmethyl-1H-benzoimidazole-5-carboxylic acid [(S)-1-((R)-3-dimethylamino-pyrrolidine-1-carbonyl)-3-methyl-butyl]-amide] |
| 4550 | CCC(CC)n1c(Cc2cccs2)nc2cc(C(=O)N[C@@H](CC(C)C)C(=O)N[C@@H](C)c3ccccc3F)ccc21 [Example 262, 1-(1-Ethyl-propyl)-2-thiophen-2-ylmethyl-1H-benzoimidazole-5-carboxylic acid {(S)-1-[(S)-1-(2-fluoro-phenyl)-ethylcarbamoyl]-3-methyl-butyl}-amide] |
| 4300 | CCC(CC)n1c(Cc2cccs2)nc2cc(C(=O)N[C@@H](CC(C)C)C(=O)N(C)Cc3ccccc3)ccc21 [Example 263, 1-(1-Ethyl-propyl)-2-thiophen-2-ylmethyl-1H-benzoimidazole-5-carboxylic acid [(S)-1-(benzyl-methyl-carbamoyl)-3-methyl-butyl]-amide] |
| 3340 | CCC(CC)n1c(Cc2cccs2)nc2cc(C(=O)N[C@@H](CC(C)C)C(=O)N(C)CCc3ccccc3)ccc21 [Example 264, 1-(1-Ethyl-propyl)-2-thiophen-2-ylmethyl-1H-benzoimidazole-5-carboxylic acid [(S)-3-methyl-1-(methyl-phenethyl-carbamoyl)-butyl]-amide] |
| 18500 | CCC(CC)n1c(Cc2cccs2)nc2cc(C(=O)N[C@@H](CC(C)C)C(=O)N3CCN(c4cccc(C(F)(F)F)c4)CC3)ccc21 [Example 269, 1-(1-Ethyl-propyl)-2-thiophen-2-ylmethyl-1H-benzoimidazole-5-carboxylic acid {(S)-3-methyl-1-[4-(3-trifluoromethyl-phenyl)-piperazine-1-carbonyl]-butyl}-amide] |
| 10800 | CCC(CC)n1c(Cc2cccs2)nc2cc(C(=O)N[C@@H](CC(C)C)C(=O)N3CCN(c4ccc(F)cc4)CC3)ccc21 [Example 270, 1-(1-Ethyl-propyl)-2-thiophen-2-ylmethyl-1H-benzoimidazole-5-carboxylic acid {(S)-1-[4-(4-fluoro-phenyl)-piperazine-1-carbonyl]-3-methyl-butyl}-amide] |
| 3260 | CCC(CC)n1c(Cc2cccs2)nc2cc(C(=O)N[C@@H](CC(C)C)C(=O)N3CCN(Cc4ccccc4)CC3)ccc21 [Example 271, 1-(1-Ethyl-propyl)-2-thiophen-2-ylmethyl-1H-benzoimidazole-5-carboxylic acid [(S)-1-(4-benzyl-piperazine-1-carbonyl)-3-methyl-butyl]-amide] |
| 2770 | CCC(CC)n1c(Cc2cccs2)nc2cc(C(=O)N[C@@H](CC(C)C)C(=O)N3CCN(CC(C)C)CC3)ccc21 [Example 272, 1-(1-Ethyl-propyl)-2-thiophen-2-ylmethyl-1H-benzoimidazole-5-carboxylic acid [(S)-1-(4-isobutyl-piperazine-1-carbonyl)-3-methyl-butyl]-amide] |
